20 compounds from patent publication EP2790511B1 (Merck Sharp & Dohme Corp., priority 2011, dated 2013) can be followed below.

The test deals with T1, hROMK (hKir1.1) (Homo sapiens, UniProt P48048).
T1 construct: expressed in transfected cells
T1 sequence (P48048 1-391): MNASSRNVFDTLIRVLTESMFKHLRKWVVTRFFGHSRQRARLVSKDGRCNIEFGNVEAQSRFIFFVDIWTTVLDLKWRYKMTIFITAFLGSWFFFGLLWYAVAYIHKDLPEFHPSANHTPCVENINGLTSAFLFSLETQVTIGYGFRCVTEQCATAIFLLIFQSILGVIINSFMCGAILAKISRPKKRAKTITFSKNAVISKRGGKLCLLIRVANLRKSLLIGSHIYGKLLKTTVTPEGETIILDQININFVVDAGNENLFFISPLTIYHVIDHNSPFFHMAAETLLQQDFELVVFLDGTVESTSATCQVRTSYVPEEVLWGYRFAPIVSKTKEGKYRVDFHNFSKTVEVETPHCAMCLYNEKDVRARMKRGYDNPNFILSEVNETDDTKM
Briefly: Thallium Flux Assay. Type of test: cell-based. On the procedure: Cell Culture Conditions- HEK293 cells stably expressing hROMK (hKir1.1) were grown at 37°C in a 10%CO2 humidified incubator in complete growth media: Dulbecco's Modified Eagle Medium supplemented with non-essential amino acids, Penicillin/Streptomycin/Glutamine, G418 and FBS. At >80% confluency, aspirate the media from the flask and rinse with 10 mL Calcium/Magnesium-free PBS. […] To dislodge the cell, gently bang the side of the flask with your hand. Triturate the cells completely and then transfer the cells to 25 mL complete media. Centrifuge at 1,500 rpm for 6 min followed by resuspension in complete growth media and determine cell concentration. […] Under ideal growth conditions and appropriate tissue culture practices, this cell line is stable for 40-45 passages.
• FluxOR™ Reagent (Component A) • FluxOR™ Assay Buffer (Component B) - 10X Concentrate • PowerLoad™ Concentrate (Component C) - 100X Concentrate • Probenecid (Component D) - Lyophilized sample is kept at -20°C. Water soluble, 100X after solubilization in 1 mL water. […] Store at 4°C. • Thallium sulfate (Tl2SO4) Concentrate (Component G) - 50 mM in water. Store at 4°C • DMSO (dimethyl sulfoxide, Component H) - 1 mL (100%)
• 1000X FluxOR™ Reagent: Reconstitute a vial of component A in 100 µl DMSO; Mix well; Store 10 µl aliquots at -20°C • 1X FluxOR™ Assay Buffer: Dilute Component B 10-fold with water; Adjust pH to 7.4 with Hepes/NaOH; Filter and store at 4°C • Probenecid/Assay Buffer: 100 mL of 1X FluxOR™ Assay Buffer; 1 mL of reconstituted component D; Store at 4°C • Loading Buffer (per microplate): 10 µl 1000X FluxOR™ Reagent; 100 µl component C; 10 mL Probenecid/Assay Buffer • Compound Buffer (per microplate): 20 mL Probenecid/Assay Buffer; 0.3 mM ouabain (10 mM ouabain in water can be stored in amber bottle/aluminum foil at room temperature); Test compound • 1X FluxOR™Chloride-Free Buffer: Prepare 1X working solution in water. Can be stored at room temperature • Stimulant Buffer (prepared at 5X final concentration in 1X FluxOR™Chloride-Free Buffer): 7.5 mM Thallium sulfate and 0.75 mM Potassium sulfate (to give a final assay concentration of 3 mM Thallium/ 0.3 mM Potassium). Store at 4°C when not in use. If kept sterile, this solution is good for months.
Assay protocol- The ROMK channel functional thallium flux assay is performed in 384 wells, using the FLIPR-Tetra instrument. HEK-hKir1.1 cells are seeded in Poly-D-Lysine microplates and kept in a 37°C-10%CO2 incubator overnight. On the day of the experiment, the growth media is replaced with the FluxOR™ reagent loading buffer and incubated, protected from light, at ambient temperature (23-25°C) for 90 min. The loading buffer is replaced with assay buffer ± test compound followed by 30 min incubation at ambient temperature, where the Thallium/Potassium stimulant is added to the microplate.
• 1. Seed HEK-hKir1.1 cells (50 µl at 20,000 cells/well) in 384-well PDL coated Microplates • 2. Allow cells to adhere overnight in humidified 37°C/10%CO2 incubator • 3. Completely remove cell growth media from microplate and replace with 25 µl loading buffer • 4. Incubate Microplate at room temperature, protected form light, for 90 min • 5. Remove loading buffer and replace with 25 µl 1x Assay Buffer ± test compound. • 6. Incubate microplate at room temperature, protected form light, for 30 min • 7. […] Excitation = 400 nm, Emission = 460 & 580 nm. Collect data for ∼ 10 min.
Data Calculation- The fluorescence intensity of wells containing 3 µM of a standard control ROMK inhibitor of the present invention is used to define the ROMK-sensitive component of thallium flux. Fluorescence in the presence of test compounds is normalized to control values to provide % fluorescence change.

The mark [1] stands for this setting: HEK293 cells stably expressing hROMK (hKir1.1), FLIPR-Tetra, read-out: Thallium Flux IC50.

Where two headings read alike, the source gives them in different places.

Turning to `Cc1c([C@H]2CN3CCN(C(=O)Cc4cnc(-n5cnnn5)nc4)C[C@H]3CO2)ccc2c1COC2=O` [Example 15, 4-methyl-5-[(3S,9aS)-8-{[2-(1H-tetrazol-1-yl)pyrimidin-5-yl]acetyl}octahydropyrazino[2,1-c][1,4]oxazin-3-yl]benzofuran-1(3H)-one], under setting [1], the IC50 worked out at 0.14 µM.
Still for that read-out and setting: the value for `Cc1c([C@@H]2CN3CCN(C(=O)Cc4cnc(-n5cnnn5)c(F)c4)C[C@H]3CO2)ccc(F)c1C#N` [Example 148, 6-fluoro-3-[(3R,9aS)-8-{[5-fluoro-6-(1H-tetrazol-1-yl)pyridin-3-yl]acetyl}octahydropyrazino[2,1-c][1,4]oxazin-3-yl]-2-methylbenzonitrile] was 0.08 µM.
In the case of `Cc1c(C2CN3CCN(C(=O)Cc4ccc(-n5cnnn5)nc4)CC3CCO2)ccc2c1COC2=O` (single isomer, unassigned) [Example 164, 4-methyl-5-(2-{(6-(1H-tetrazol-1-yl)pyridin-3-yl]acetyl}octahydro-2H-pyrazino[1,2-d][1,4]oxazepin-7-yl)-2-benzofuran-1(3H)-one], for the setting “Thallium Flux IC50”, the midpoint of inhibition, the IC50, lay at 0.65 µM.
Regarding `Cc1c([C@@H]2CN3CCN(C(=O)Nc4ccc(-n5cnnn5)nc4)C[C@H]3CO2)ccc(F)c1C#N` [Example 198, (3R,9aS)-3-(3-cyano-4-fluoro-2-methylphenyl)-N-[6-(1H-tetrazol-1-yl)pyridin-3-yl]hexahydropyrazino[2,1-c][1,4]oxazine-8(1H)-carboxamide], under setting [1], the IC50 came to 0.16 µM.
In turn, `Cc1c([C@@H]2CN3CCN(C(=O)Cc4ccc(-n5cnnn5)cn4)C[C@@H]3CO2)ccc(F)c1C#N` [Example 32, 6-fluoro-2-methyl-3-[(3R,9aR)-8-{[5-(1H-tetrazol-1-yl)pyridin-2-yl]acetyl}octahydropyrazino[2,1-c][1,4]oxazin-3-yl]benzonitrile] returned an IC50 (Thallium Flux IC50) of 0.08 µM.
Regarding `Cc1nc(-n2cnnn2)ccc1CC(=O)N1CCN2C[C@@H](c3ccc(F)c(C#N)c3C)OC[C@@H]2C1` [Example 77, 6-fluoro-2-methyl-3-[(3R,9aS)-8-{[2-methyl-6-(1H-tetrazol-1-vl)pvridin-3-yl]acetyl}octahydropyrazino[2,1-c][1,4]oxazin-3-yl]benzonitrile], under setting [1], the IC50 is 0.1 µM.
`O=C1OCc2c1ccc([C@@H]1CN3CCN(C(=O)Cc4ccc(-n5cnnn5)nc4)C[C@H]3CO1)c2Cl` [Example 46, 4-chloro-5-[(3R,9aS)-8-{[6-(1H-tetrazol-1-yl)pyridin-3-yl]acetyl}octahydropyrazino[2,1-c][1,4]oxazin-3-yl]-2-benzofuran-1(3H)-one] came in with an IC50 (Thallium Flux IC50) of 0.67 µM.
For `Cc1c([C@@H]2CN3CCN(C(=O)Cc4cnc(-n5cnnn5)nc4)C[C@@H]3CO2)ccc2c1COC2=O` [Example 122, 4-methyl-5-[(3R,9aR)-8-{[2-(1H-tetrazol-1-yl)pyrimidin-5-yl]acetyl}octahydropyrazino[2,1-c][1,4]oxazin-3-yl]-2-benzofuran-1(3H)-one], under setting [1], the IC50 was determined as 0.39 µM.
Consider `Cc1c([C@@H]2CN3CCN(C(=O)Cc4ccc(-n5cnnn5)nc4)C[C@H]3CS2)ccc2c1COC2=O` [Example 166, 4-methyl-5-[(3R,9aS)-8-{[6-(1H-tetrazol-1-yl)pyridin-3-yl]acetyl}octahydropyrazino[2,1-c][1,4]thiazin-3-yl]-2-benzofuran-1(3H)-one], for which, under setting [1], the IC50 was found to be 0.38 µM.
As to `Cc1c([C@H]2CN3CCN(C(=O)Cc4ccc(-n5cnnn5)cn4)C[C@H]3CS2)ccc(F)c1C#N` [Example 186], the IC50 under setting [1] stood at 0.27 µM.
Still for that read-out and setting: the value for `COc1cc([C@H]2CN3CCN(C(=O)Cc4ccc(-n5cnnn5)nc4)C[C@H]3CO2)ccc1C#N` [Example 56, 2-methoxy-4-[(3S,9aS)-8-{[6-(1H-tetrazol-1-yl)pyridin-3-yl]acetyl}octahydropyrazino[2,1-c][1,4]oxazin-3-yl]benzonitrile] was 0.12 µM; that for `COc1cc([C@H]2CN3CCN(C(=O)Cc4ccc(-n5cnnn5)nc4)C[C@@H]3CO2)ccc1C#N` [Example 39, 2-methoxy-4-[(3S,9aR)-8-{[6-(1H-tetrazol-1-yl)pyridin-3-yl]acetyl}octahydropyrazino[2,1-c][1,4]oxazin-3-yl]benzonitrile] was 0.26 µM.
Compound `Cc1c([C@H]2CN3CCN(C(=O)Cc4ccc(-n5cnnn5)nc4)C[C@H]3CO2)ccc2c1COC2=O` [Example 21, 4-methyl-5-[(3S,9aS)-8-{[6-(1H-tetrazol-1-yl)pyridin-3-yl]acetyl}octahydropyrazino[2,1-c][1,4]oxazin-3-yl]-2-benzofuran-1(3H)-one] yielded an IC50 (Thallium Flux IC50) of 0.1 µM.
For the compound `N#Cc1c(F)ccc([C@@H]2CN3CCN(C(=O)Cc4ccc(-n5cnnn5)cn4)C[C@H]3CO2)c1F` [Example 54, 2,6-difluoro-3-[(3R,9aS)-8-{[5-(1H-tetrazol-1-yl)pyridin-2-yl]acetyl}octahydropyrazino[2,1-c][1,4]oxazin-3-yl]benzonitrile], under setting [1], the IC50 was found to be 0.1 µM.
In turn, `Cc1c([C@H]2CN3CCN(C(=O)Cc4ccc(-n5cnnn5)nc4)C[C@H]3CS2(=O)=O)ccc(F)c1C#N` [Example 187, 3-[(3S,9aS)-2,2-dioxido-8-{[6-(1H-tetrazol-1-yl)pyridin-3-yl]acetyl}octahydropyrazino[2,1-c][1,4]thiazin-3-yl]-6-fluoro-2-methylbenzonitrile] had an IC50 (Thallium Flux IC50) of 0.28 µM.
Consider `O=C(Cc1ccc(-n2cnnn2)cn1)N1CCN2C[C@@H](c3ccc4nonc4c3)OC[C@@H]2C1` [Example 178, (3R,9aS)-3-(2,1,3-benzoxadiazol-5-yl)-8-{[5-(1H-tetrazol-1-vl)pvridin-2-yl]acetyl}octahydropyrazino[2,1-c][1,4]oxazine], for which the IC50 under setting [1] came out at 0.35 µM.
Regarding `Cc1c([C@@H]2CN3CCN(C(=O)Cc4ccc(-n5cnnn5)nc4)C[C@H]3CO2)ccc(Cl)c1C#N` [Example 65], the IC50 under setting [1] came to 0.15 µM.
As to `Cc1nc(-n2cnnn2)ccc1CC(=O)N1CCN2C[C@@H](c3ccc4c(c3)CCOC4=O)OC[C@@H]2C1` [Example 30, 6-[(3R,9aS)-8-{[2-methyl-6-(1H-tetrazol-1-yl)pyridin-3-yl]acetyl}octahydropyrazino[2,1-c][1,4]oxazin-3-yl]-3,4-dihydro-1H-isochromen-1-one], the IC50 under setting [1] stood at 0.16 µM.
Regarding `Cc1c([C@@H]2CN3CCN(C(=O)Cc4ccc(-n5cnnn5)nc4)C[C@@H]3CO2)ccc(F)c1C#N` [Example 102, 6-fluoro-2-methyl-3-[(3R,9aR)-8-{[6-(1H-tetrazol-1-yl)pyridin-3-yl]acetyl}octahydropyrazino[2,1-c][1,4]oxazin-3-yl]benzonitrile], the IC50 (Thallium Flux IC50) turned out to be 0.15 µM.
With `N#Cc1c(F)ccc([C@H]2CN3CCN(C(=O)Cc4ccc(-n5cnnn5)nc4)C[C@H]3CO2)c1C1CC1` [Example 181, 2-cyclopropyl-6-fluoro-3-[(3S,9aS)-8-{[6-(1H-tetrazol-1-vl)pvridin-3-yl]acetyl}octahydropyrazino[2,1-c][1,4]oxazin-3-yl]benzonitrile], where the note is “Thallium Flux IC50”, the IC50 was 0.38 µM.

Broadly, the IC50 is the point on the concentration scale where inhibition reaches its midpoint.
